Test results as given in patent publication EP0325279A1, “Dehydrocholecalciferol derivatives” (F. HOFFMANN-LA ROCHE AG, priority 1988, dated 1989).
Where “and” joins values, the source holds several entries; their conditions need not be identical. Equal entries are not always repeated.

Assays:
Format in all cases: cell-based
[1] = tested on: Plattenepithel-Karzinomzellenlinien (SCC-15); assay: Number of squamous carcinoma cell line cells formed in presence of compound
Text: (§1) Die Aktivität der Verbindungen der Formel I als Mittel für die Behandlung von hyperproliferativen Hautkrankheiten kann auch durch Ermittlung der Anzahl von menschlichen Keratinocyten, von verhornten Plattenepithelzellen und von Plattenepithel-Karzinomzellenlinien (SCC-115), die sich in Gegenwart der besagten Verbindungen bilden.
(§2) Die Resultate sind in den Tabellen 4 und 5 angegeben: Tabelle 4

[2] = tested on: menschlicher promyelocytischer Tumorzellen HL-60; assay: Differentiation-inducing (DI) effect on HL-60 cells
Text: (§3) Zum Nachweis der Aktivität der Verbindungen der Formel I als Mittel zur Behandlung von neoplastischen Krankheiten wurden die antiproliferativen (AP) und die Differenzierung induzierenden Effekte (DI) der Verbindungen A bis F sowie die Anzahl menschlicher promyelocytischer Tumorzellen HL-60 ermittelt. In Tabelle 6 ist der AP Effekt als prozentuale Reduktion der Anzahl Zellen und als Konzentration ID₅₀, die die Zellenanzahl um 50% reduziert, angegeben. Der DI Effekt ist angegeben als Prozentsatz der differenzierten Zellen und als Konzentration ED₅₀ der Verbindungen, die eine 50%ige Differenzierung der Zellen bewirkt.

[3] = tested on: menschlicher promyelocytischer Tumorzellen HL-60; assay: Antiproliferative (AP) effect on HL-60 cells
Text: as §3

[4] = tested on: gezüchteten menschlichen Keratinocyten; assay: Morphological differentiation of cultured human keratinocytes (cell counts by cell type)
[5] = tested on: menschlichen Keratinocyten; assay: Number of human keratinocytes and cornified squamous cells formed in presence of compound
Text: as §1, §2

[6] = Konzentration 0.01 (head prints x10 M)
[7] = Konzentration 0.1 (head prints x10 M)
[8] = Konzentration 1 (head prints x10 M)
[9] = Konzentration 10 (head prints x10 M)

C=C1/C(=C\C=C2/CCC[C@]3(C)C([C@H](C)CC#CC(C)(C)O)=CC[C@@H]23)C[C@@H](O)C[C@@H]1O [Verbindung E]
Anzahl Zellenlinien (SCC-15) (x10⁵) ([1]; Dosis 10⁻¹² M): 6.98±1.68 x10⁵
Anzahl Zellenlinien (SCC-15) (x10⁵) ([1]; Dosis 10⁻¹⁰ M): 5.89±1.58 x10⁵
Anzahl Zellenlinien (SCC-15) (x10⁵) ([1]; Dosis 10⁻⁶ M): 0.40±0.98 x10⁵ and 0.49±0.13 x10⁵
Anzahl Zellenlinien (SCC-15) (x10⁵) ([1]; Dosis 10⁻⁸ M): 5.76±1.53 x10⁵
EC50 ([2]; Homo sapiens, concentration that causes 50% differentiation of the cells, read-out: ED50 (the source's name)): 1 nM
Differenzierte Zellen (%) [2, 6]: 9%
Differenzierte Zellen (%) [2, 7]: 50%
Differenzierte Zellen (%) [2, 8]: 96%
Differenzierte Zellen (%) [2, 9]: 98%
IC50 ([3]; Homo sapiens, concentration that reduces the cell number by 50%, read-out: ID50 (the source's name)): 0.7 nM
% Reduktion der Anzahl Zellen [3, 6]: 6%
% Reduktion der Anzahl Zellen [3, 7]: 59%
% Reduktion der Anzahl Zellen [3, 8]: 80%
% Reduktion der Anzahl Zellen [3, 9]: 81%
Anzahl Zellen (x10⁴): Basalzellen ([4]; Dosis 10⁻¹⁰ M): 63±2 x10⁴
Anzahl Zellen (x10⁴): Gesamtanzahl ([4]; Dosis 10⁻¹⁰ M): 86±4 x10⁴
Anzahl Zellen (x10⁴): Plattenepithelzellen ([4]; Dosis 10⁻¹⁰ M): 23±2 x10⁴
Anzahl Zellen (x10⁴): verhornte Plattenepithelzellen ([4]; Dosis 10⁻¹⁰ M): 114±5 x10⁴
Anzahl Zellen (x10⁴): Basalzellen ([4]; Dosis 10⁻⁶ M): 41±1 x10⁴
Anzahl Zellen (x10⁴): Gesamtanzahl ([4]; Dosis 10⁻⁶ M): 78±3 x10⁴
Anzahl Zellen (x10⁴): Plattenepithelzellen ([4]; Dosis 10⁻⁶ M): 27±2 x10⁴
Anzahl Zellen (x10⁴): verhornte Plattenepithelzellen ([4]; Dosis 10⁻⁶ M): 147±4 x10⁴
Anzahl Zellen (x10⁴): Basalzellen ([4]; Dosis 10⁻⁸ M): 53±2 x10⁴
Anzahl Zellen (x10⁴): Gesamtanzahl ([4]; Dosis 10⁻⁸ M): 82±3 x10⁴
Anzahl Zellen (x10⁴): Plattenepithelzellen ([4]; Dosis 10⁻⁸ M): 29±1 x10⁴
Anzahl Zellen (x10⁴): verhornte Plattenepithelzellen ([4]; Dosis 10⁻⁸ M): 141±5 x10⁴
Anzahl Keratinocten (x10⁴) ([5]; Dosis 10⁻¹² M): 187.36±15.33 x10⁴
Anzahl verhornte Plattenepithelzellen (x10²) ([5]; Dosis 10⁻¹² M): 1136.63± 383.66 x10²
Anzahl Keratinocten (x10⁴) ([5]; Dosis 10⁻¹⁰ M): 175.34±10.19 x10⁴
Anzahl verhornte Plattenepithelzellen (x10²) ([5]; Dosis 10⁻¹⁰ M): 1444.87± 312.47 x10²
Anzahl Keratinocten (x10⁴) ([5]; Dosis 10⁻⁶ M): 41.95± 7.53 x10⁴
Anzahl verhornte Plattenepithelzellen (x10²) ([5]; Dosis 10⁻⁶ M): 1916.83± 887.66 x10²
Anzahl Keratinocten (x10⁴) ([5]; Dosis 10⁻⁸ M): 145.79±15.66 x10⁴
Anzahl verhornte Plattenepithelzellen (x10²) ([5]; Dosis 10⁻⁸ M): 2113.62±1049.33 x10²
